Results reported in patent US20260217708A1, “FUSED BENZAZEPINE DERIVATIVES FOR USE IN THE TREATMENT OF CANCER AND EPILEPSY” (UCB BIOPHARMA SRL, priority 2023, published 2026).

Experiments:
system Xc^− [1] = molecular target: T1, system Xc^− (Homo sapiens, UniProt Q9UPY5); test: Cystine-induced glutamate release assay; format: cell-based; parameters: endogenous in cells; host or cells: H4 cells; details: H4 cells, sodium-free HEPES buffer, 50 μM L-Cystine, 2 hours, Amplex Red glutamate readout; read-out: pIC50 Cystine-induced glutamate release assay (converted)
T1 sequence (Q9UPY5 1-501): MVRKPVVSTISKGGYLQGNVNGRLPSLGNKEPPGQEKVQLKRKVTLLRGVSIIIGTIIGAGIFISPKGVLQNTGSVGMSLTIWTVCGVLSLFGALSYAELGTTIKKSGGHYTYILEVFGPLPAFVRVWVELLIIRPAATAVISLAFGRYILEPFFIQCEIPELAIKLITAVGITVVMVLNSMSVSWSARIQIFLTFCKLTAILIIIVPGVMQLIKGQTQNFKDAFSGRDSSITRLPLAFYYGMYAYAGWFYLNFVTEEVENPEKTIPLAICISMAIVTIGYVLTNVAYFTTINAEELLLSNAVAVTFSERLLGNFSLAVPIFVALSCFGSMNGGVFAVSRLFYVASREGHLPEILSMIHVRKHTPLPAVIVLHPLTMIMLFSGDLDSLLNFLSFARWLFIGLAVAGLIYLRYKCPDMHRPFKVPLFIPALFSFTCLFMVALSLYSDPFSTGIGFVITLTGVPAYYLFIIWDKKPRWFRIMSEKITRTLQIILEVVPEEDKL
T1 sequence (P08195 1-529 partner): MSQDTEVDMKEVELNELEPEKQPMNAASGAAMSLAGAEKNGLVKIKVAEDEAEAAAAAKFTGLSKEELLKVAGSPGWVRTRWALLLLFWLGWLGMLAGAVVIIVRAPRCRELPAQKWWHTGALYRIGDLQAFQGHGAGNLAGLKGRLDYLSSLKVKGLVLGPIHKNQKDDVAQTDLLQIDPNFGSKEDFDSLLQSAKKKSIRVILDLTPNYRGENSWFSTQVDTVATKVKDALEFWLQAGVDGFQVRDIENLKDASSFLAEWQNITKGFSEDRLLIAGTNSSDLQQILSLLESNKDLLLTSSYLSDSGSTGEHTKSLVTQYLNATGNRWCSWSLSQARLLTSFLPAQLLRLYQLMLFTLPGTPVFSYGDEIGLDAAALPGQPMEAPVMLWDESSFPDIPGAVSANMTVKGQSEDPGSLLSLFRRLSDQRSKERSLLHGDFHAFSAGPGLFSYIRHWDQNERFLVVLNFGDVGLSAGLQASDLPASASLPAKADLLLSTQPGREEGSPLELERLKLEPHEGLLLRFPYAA
Excerpt: (§1) The effect of compounds of Formula (I) on the system Xc^− functionality was examined in two independent cell assays: (i) measurement of cystine-induced glutamate release; and (ii) measurement of [^14C]L-Cystine uptake.
(§2) As described above, System Xc^−, also known as the cystine/glutamate antiporter, is an amino acid transporter that mediates the extrusion of intracellular L-glutamate outside the cell and the uptake of extracellular L-cystine into the cell.
(§3) By measuring respectively, the concentration of glutamate released outside the cell and the L-cystine uptaken in the cell, with increasing concentrations of compounds of formula (I) according to the present invention, the efficacy of said compounds to inhibit the System Xc^− function can be evaluated.
(§4) The efficacy of the compounds to inhibit system Xc^− is represented by measuring the IC50 which corresponds to the concentration of compound necessary to inhibit 50% of the signals from the two control groups; DMSO 1% and Erastin 50 μM in the respective assays. pIC50 values correspond to −log of the IC50 in Molar.
Measurement of cystine-induced glutamate release indicates levels of glutamate (outside of the cell) that are dependent on system Xc^− antiporter function. Upon the addition of L-Cystine to H4 cells, intracellular glutamate is counter-transported and exported in the supernatant.
In this assay, the medium is devoid of sodium to prevent the transport of glutamate by sodium-dependent excitatory amino acid transporters (EAATs). H4 cells were plated on 384-well culture plate at 1×10^4 cells/well in Dulbecco's Modified Eagle Medium (DMEM) with L-glutamine, penicillin/streptomycin and 10% fetal bovine serum (all from ThermoFisher Scientific) and incubated in a humidified CO2 incubator at 37° C. After 2 days, cells were washed 4 times with prewarmed sodium-free HEPES buffer (contents in mM: HEPES 10, KCl 5.4, CaCl2 2.5, MgCl2 1, KH2PO4 0.4, D-Glucose 5, Choline chloride 140), pH 7.4. Glutamate release was induced by addition of 50 μM of L-Cystine (Sigma-Aldrich), together with a test compound of Formula (I) at 1% final DMSO concentration. After 2 hours of incubation in the culture incubator, supernatants were transferred to a low-binding polypropylene 384-well plate to determine L-glutamate concentration using Amplex™ Red Glutamic Acid Assay Kit (ThermoFisher Scientific). Briefly, 10 μL of Amplex™ Red working solution was added to 10 μL of the supernatant, then the mixture was incubated for 30 min at 37° C. Fluorescence intensity was measured by EnVision microplate reader (PerkinElmer).

system Xc^− [2] = molecular target: T1, system Xc^−; test: [^14C]L-Cystine uptake assay; format: cell-based; parameters: endogenous in cells; host or cells: H4 cells; details: H4 cells, sodium-free HEPES buffer, 0.5 μM L-[14C]Cystine and 4.5 μM L-Cystine, 1 hour at 37° C.; read-out: pIC50 [^14C] L-Cystine uptake assay (converted)
Excerpt: as §1, §2, §3, §4
In this assay, the medium is devoid of sodium to prevent the transport of glutamate by sodium-dependent excitatory amino acid transporters (EAATs). H4 cells were plated on a 96-well CytoStar-T scintillating microplate (PerkinElmer) at 5×10^4 cells/well in the medium described above. After 1 day, cells were washed one time with the sodium-free HEPES buffer and preincubated with test compounds of Formula (I) (1% final DMSO) for 15 min. Uptake was initiated by adding 0.5 μM L-[1,2, 1′,2′-^14C]Cystine (0.02 mCi/mL, PerkinElmer, Waltham, US) and 4.5 μM L-Cystine (Sigma-Aldrich). After 1 hour at 37° C., plates were counted in a MicroBeta^2 microplate counter (PerkinElmer).

IC50 (system Xc^− [1]) [nM]	IC50 (system Xc^− [2]) [nM]	SMILES
< 15.8	< 15.8	Cc1cc2c(c(Cl)n1)-c1cccnc1[C@@H](C)C(=O)N2CC(=O)Nc1ccc(C(F)(F)F)cc1 (single isomer, unassigned) [#197, Enantiomer (10R) or (10S) of 2-[3-chloro-5,10-dimethyl-9-oxo-4,8,12-triazatricyclo[9.4.0.0^2,7]pentadeca-1(11),2,4,6,12,14-hexaen-8-yl]-N-[4-(trifluoromethyl)phenyl]acetamide]
39.8 to 100	39.8 to 100	Cc1cc2c(c(F)n1)-c1ccnn1[C@@H](C)C(=O)N2CC(=O)Nc1ccc(C(F)(F)F)cc1 (single isomer, unassigned) [#198, Enantiomer (7R) or (7S) of 2-[14-fluoro-7,12-dimethyl-8-oxo-5,6,9,13-tetrazatricyclo[8.4.0.0^2,6]tetradeca-1(10),2,4,11,13-pentaen-9-yl]-N-[4-(trifluoromethyl)phenyl]acetamide]
15.8 to 39.8	< 15.8	CO[C@H]1C(=O)N(CC(=O)Nc2ccc(C(F)(F)F)cc2)c2cc(C)nc(Cl)c2-c2ccccc21 (single isomer, unassigned) [#199, Entnaiomer (7R) or (7S) of 2-[1-chloro-7-methoxy-3-methyl-6-oxo-7H-pyrido[4,3-d][3]benzazepin-5-yl]-N-[4-(trifluoromethyl)phenyl]acetamide]
15.8 to 39.8	< 15.8	Cc1cc2c(c(F)n1)-c1cccnc1[C@@H](C)C(=O)N2CC(=O)Nc1ccc(Cl)c(F)c1 (single isomer, unassigned) [#200, Enantiomer (10R) or (10S) of N-(4-chloro-3-fluoro-phenyl)-2-[3-fluoro-5,10-dimethyl-9-oxo-4,8,12-triazatricyclo[9.4.0.0^2,7]pentadeca-1(11),2(7),3,5,12,14-hexaen-8-yl]acetamide]
15.8 to 39.8	< 15.8	Cc1cc2c(cn1)-c1cccnc1[C@@H](C)C(=O)N2CC(=O)Nc1ccc(C(F)(F)F)cc1 (single isomer, unassigned) [#201, Enantiomer (10R) or (10S) of 2-[5,10-dimethyl-9-oxo-4,8,12-triazatricyclo[9.4.0.0^2,7]pentadeca-1(11),2(7),3,5,12,14-hexaen-8-yl]-N-[4-(trifluoromethyl)phenyl]acetamide]
39.8 to 100	15.8 to 39.8	Cc1cc2c(c(F)n1)-c1cncnc1[C@@H](C)C(=O)N2CC(=O)Nc1ccc(C(F)(F)F)cc1 (single isomer, unassigned) [#202, Enantiomer (8R) or (8S) of 2-[15-fluoro-8,13-dimethyl-9-oxo-4,6,10,14-tetrazatricyclo[9.4.0.0^2,7]pentadeca-1(15),2(7),3,5,11,13-hexaen-10-yl]-N-[4-(trifluoromethyl)phenyl]acetamide]
15.8 to 39.8	< 15.8	[2H]C([2H])([2H])[C@H]1C(=O)N(CC(=O)Nc2ccc(C(F)(F)F)cc2)c2cc(C)nc(F)c2-c2cccnc21 (single isomer, unassigned) [#203, Enantiomer (10R) or (10S) of 2-[3-fluoro-5-methyl-9-oxo-10-(trideuteriomethyl)-4,8,12-triazatricyclo[9.4.0.0^2,7]pentadeca-1(15),2(7),3,5,11,13-hexaen-8-yl]-N-[4-(trifluoromethyl)phenyl]acetamide]
39.8 to 100	< 15.8	Cc1cc2c(c(F)n1)-c1ccc(C)nc1[C@@H](C)C(=O)N2CC(=O)Nc1ccc(C(F)(F)F)cc1 (single isomer, unassigned) [#204, Enantiomer (10R) or (10S) of 2-[3-fluoro-5,10,13-trimethyl-9-oxo-4,8,12-triazatricyclo[9.4.0.0^2,7]pentadeca-1(11),2(7),3,5,12,14-hexaen-8-yl]-N-[4-(trifluoromethyl)phenyl]acetamide]
15.8 to 39.8	< 15.8	Cc1cc2c(c(=O)[nH]1)-c1ccccc1[C@@H](C)C(=O)N2CC(=O)Nc1ccc(C(F)(F)F)cc1 (single isomer, unassigned) [#205, Entnaiomer (7R) or (7S) of 2-[3,7-dimethyl-1,6-dioxo-2,7-dihydropyrido[4,3-d][3]benzazepin-5-yl]-N-[4-(trifluoromethyl)phenyl]acetamide]
39.8 to 100	< 15.8	Cc1cc2c(c(F)n1)-c1cccnc1[C@@H](CO)C(=O)N2CC(=O)Nc1ccc(C(F)(F)F)cc1 (single isomer, unassigned) [#206, Enantiomer (10S) or (10R) of 2-[(3-fluoro-10-(hydroxymethyl)-5-methyl-9-oxo-4,8,12-triazatricyclo[9.4.0.0^2,7]pentadeca-1(11),2(7),3,5,12,14-hexaen-8-yl]-N-[4-(trifluoromethyl)phenyl]acetamide]
15.8 to 39.8	< 15.8	Cc1cc2c(c(Cl)n1)-c1cncnc1[C@@H](C)C(=O)N2CC(=O)Nc1ccc(C(F)(F)F)cc1 (single isomer, unassigned) [#207, Enantiomer (8S) or (8R) of 2-[15-chloro-8,13-dimethyl-9-oxo-4,6,10,14-tetrazatricyclo[9.4.0.0^2,7]pentadeca-1(11),2,4,6,12,14-hexaen-10-yl]-N-[4-(trifluoromethyl)phenyl]acetamide]
< 15.8	< 15.8	Cc1cc2c(n(C)c1=O)-c1cccnc1[C@@H](C)C(=O)N2CC(=O)Nc1ccc(C(F)(F)F)cc1 (single isomer, unassigned) [#208, Enantiomer (10S) or (10R) of N-[4-(trifluoromethyl)phenyl]-2-[3,5,10-trimethyl-4,9-dioxo-3,8,12-triazatricyclo[9.4.0.0^2,7]pentadeca-1(11),2(7),5,12,14-pentaen-8-yl]acetamide]
15.8 to 39.8	15.8 to 39.8	COc1cc2c(c(F)n1)-c1cccnc1[C@@H](C)C(=O)N2CC(=O)Nc1ccc(C(F)(F)F)cc1 (single isomer, unassigned) [#209, Enantiomer (10S) or (10R) of 2-[3-fluoro-5-methoxy-10-methyl-9-oxo-4,8,12-triazatricyclo[9.4.0.0^2,7]pentadeca-1(15),2(7),3,5,11,13-hexaen-8-yl]-N-[4-(trifluoromethyl)phenyl]acetamide]
